Reference: US20260166182A1, “CYANINE-BASED FLUOROPHORES” (The General Hospital Corporation, priority 2022, published 2026)

Columns and labels:
[1] = Optical properties and NIR-II quantum yield in 5% BSA saline; type: physicochemical
Description: Fluorescence Quantum yield measurement and physicochemical properties: The absorption and emission spectra of fluorophores were measured in 5% BSA saline using UV/Vis/NIR spectrometers (USB2000+VIS+NIR+ES and Flame-NIR, Ocean Insight, Dunedin, FL). Fluorescence emission spectra were collected by NIR excitation with an 808-nm laser. To calculate NIR-II fluorescence quantum yield, the following equation was used:
[formula] • where QYsample is the QY of SH1, QYref is the QY of ICG in 30% FBS supplemented with 50 mM HEPES, nsample and nref are the refractive indices of SH1 and ICG solutions which are both water (1.33) in this case. In silico calculations of molecular weight, the distribution coefficient (LogD at pH 7.4), surface molecular charge, polarizability, and 3D molecular surface area were performed using MarvinSketch (ChemAxon, Budapest, Hungary).

[2] = test system: orthotopic lung cancer (LLC cell); assay: Orthotopic lung tumor targeting; type: in vivo, mouse; details: 50 nmol, 48 h prior to imaging
From the text: General NIR-II fluorescence imaging: A 640×512-pixel InGaAs camera (Ninox640, Raptor Photonics) and macro zoom lens (0-10×; Navitar Zoom 7000 with SWIR coating) along with 900, 1070, 1100, and 1200 nm long-pass (LP) filters from either Thorlab or Edmund optics were used to collect the NIR-II signal. InGaAs camera played a role as an open-air imaging system along with the support of the FLARE system. An 808 nm fiber-coupled diode laser ([…] at the sample) was used as an excitation source. Data acquisition was done using in-house developed software. The mice fur on the region of interest was shaved prior to imaging using a clipper and removed completely using a depilatory cream. 100 μL of SH1 in 5 w/v % BSA saline ([…]) was injected through the tail vein. Mice were imaged with intact skin using InGaAs camera. At least 3 mice were analyzed for each sample. […]
Statistical analysis: The fluorescence and background intensities of a region of interest over each tissue were quantified using customized imaging software and ImageJ v1.48 (National Institutes of Health, Bethesda, MD). The signal-to-background ratio (SBR) was calculated as SBR=fluorescence/background, where background was the fluorescence intensity of muscle. […] The differences among groups were determined using one-way ANOVA analysis to assess the statistical differences among more than two groups. […]

[3] = Optical study in EtOH, DMSO, HEPES and PBS; type: physicochemical
Description: Optical Study, Photostability, Physicochemical Properties, and DFT Calculation: 1 mM stock solution in DMSO of the synthesized fluorophores was prepared before starting any spectral measurement. Optical properties for the synthesized fluorophores were measured in four different solvents (EtOH, DMSO, HEPES, and PBS). Absorbance spectra were measured in a Varian Cary 50 absorbance spectrophotometer (190-1100 nm). Fluorescence emission and photostability were measured and emission spectra were recorded on a Shimadzu RF-5301PC spectrofluorometer. Physicochemical properties (Log D, molecular mass, TPSA, H bond D/A, polarizability, molecular volume, and rotatable bonds) were predicted by ChemAxon (JChem plugin). Theoretical calculations of frontier molecular orbitals (FMOs) for the optimized structures of selected fluorophores were calculated based on DFT calculations at the B3LYP/6-311G(d,p) level.
In vivo success of a contrast agent can depend on the absorption and emission profiles, molar extinction coefficient, quantum yield, molecular brightness, physicochemical properties, and photochemical stability. Different types of polymethine bridges can have an impact on the structural geometry of the fluorophores and the absorption and emission profiles. Optical properties were measured in polar protic EtOH, polar aprotic DMSO, and two buffer solutions, phosphate-buffered saline (PBS, PH ˜7.4) and 4-(2-hydroxyethyl)-1-piperazine-ethanesulfonic acid (HEPES, PH ˜7.4). Organic solvents such as ethanol (EtOH) and dimethyl sulfoxide (DMSO) are often used in spectroscopic experiments to observe the absorption and emission maximum, whereas buffer solvents PBS and HEPES were used to mimic the biological environment, as these synthesized fluorophores are intended to be used in bioimaging. The absorbance profiles of these fluorophores were recorded at various concentrations (0.8, 1.6, 2.4, 3.2, 4.0 μM) and the absorbance values obtained were plotted against each of the concentrations. […] Fluorophores 18-21 refer to the labels in Example 4 and FIG. 7D.
The molar extinction coefficient is an intrinsic property of any fluorophore and can be important for high image resolution. […] These properties vary with the structure change and are difficult to predict beforehand. The optical properties of the synthesized fluorophores were measured in various media. All measurements were performed in 2 different organic solvents (EtOH and DMSO) and 2 different buffer (HEPES and PBS), and ICG was used as a reference (ΦICG=0.043).

## CCCCN1/C(=C/C=C2\CCCC(/C=C/C3=[N+](CCCC)c4ccc(Cl)cc4C3(C)C)=C2Cl)C(C)(C)c2cc(Cl)ccc21 [SH1, 1-butyl-2-((E)-2-((E)-3-(2-((E)-1-butyl-5-chloro-3,3-dimethylindolin-2-ylidene)ethylidene)-2-chlorocyclohex-1-en-1-yl)vinyl)-5-chloro-3,3-dimethyl-3H-indol-1-ium]
[1]; 5% BSA saline
  NIR-II tail emission up to: ~1250 nm
  extinction coefficient: 333,600 M^−1 cm^−1
  fluorescence emission maximum (NIR-I): 820 nm
[1]; 5 w/v % BSA saline
  quantum yield: 11%
[1]; 808 nm excitation, 1,070 nm LP
  brightness in the NIR-II region relative to ICG: 2.2 fold
  brightness in the NIR-II region relative to IR-780: 1.7 fold
[1]; NIR-II region
  fluorescence brightness in the NIR-II region compared with ICG: 225%
[2]
  TBR against normal tissue: 47.3
  TBR against the lung: 3.12
[3]; DMSO
  molar extinction coefficient: 203,000 cm^−1 M^−1
[3]; EtOH
  molar extinction coefficient: 270,000 cm^−1 M^−1
[3]; HEPES
  Stokes shift: 140 nm
  absorbance maximum: 661 nm
  emission wavelength: 802 nm
  molar extinction coefficient: 44,000 cm^−1 M^−1
[3]; PBS
  molar extinction coefficient: 41,000 cm^−1 M^−1
